In US10703764B2, “Benzopiperazine compositions as BET bromodomain inhibitors” (FORMA Therapeutics, Inc., priority 2013, dated 2020):
Where two headings read alike, the source gives them in different places.

What was measured:
BRD4 BD1 = biological target: T1, BRD4 BD1 (Homo sapiens, UniProt O60885); assay: AlphaScreen binding assay, BRD4 Bromodomain 1
T1 construct: made in house
In short: (§1)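 Compound dilution series were mixed with His-tagged BRD4 bromodomain and biotinylated tetra-acetylated H4 (1-21) peptide at pH 7.3 (BD1 and peptide at 50 nM, BD2 and peptide at 100 nM). Donor and acceptor beads were then added, and plates were equilibrated at least 1 h before reading. IC50 values were fitted with a four-parameter logistic model.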

BRD4 BD2 = biological target: T2, BRD4 BD2 (Homo sapiens, UniProt O60885); assay: AlphaScreen binding assay, BRD4 Bromodomain 2
T2 construct: made in house
In short: as §1

MV4-11 cells = assay: Oncology cell growth assay (3-day proliferation, CellTiter-Glo); type: cell-based; settings: Homo sapiens, AML cell line MV4-11, 72 hours, compounds grouped by IC50 range, read-out: MV4-11 IC50 (inhibition of proliferation, gIC50)
In short: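 Luminescence from CellTiter-Glo served as the growth read-out after MV4-11 cells (3000/well) were cultured with compound for 72 hours. Final concentrations spanned 10 to 0.0045 μM in 3-fold steps. gIC50 values were derived by four-parameter logistic fitting relative to DMSO and cell-free controls.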

Row | Structure (SMILES) | IC50 (BRD4 BD1) [nM] | IC50 (BRD4 BD2) [nM] | IC50 (MV4-11 cells; MV4-11, 72 h) [nM] | IC50 (MV4-11 cells) [nM]
1 | CC(=O)N1c2ccc(-c3cnn(CCO)c3)cc2N(C(=O)OCCC(F)(F)F)C[C@@H]1C [Example I-81, (S)-3,3,3-trifluoropropyl 4-acetyl-7-(1-(2-hydroxyethyl)-1H-pyrazol-4-yl)-3-methyl-3,4-dihydroquinoxaline-1(2H)-carboxylate] | 1000 to 10000 | > 500 | 100 to 500 | –
2 | CC(=O)N1c2ccc(-c3cnn(CCO)c3)cc2N(C(=O)OCC(F)(F)F)C[C@@H]1C [Example I-82, (S)-2,2,2-trifluoroethyl 4-acetyl-7-(1-(2-hydroxyethyl)-1H-pyrazol-4-yl)-3-methyl-3,4-dihydroquinoxaline-1(2H)-carboxylate] | > 10000 | > 500 | > 500 | –
3 | CC(=O)N1c2ccc(-c3cnn(C4COC4)c3)cc2N(C(=O)OC2CCCCC2)C[C@@H]1C [Example I-86, (S)-cyclohexyl 4-acetyl-3-methyl-7-(1-(oxetan-3-yl)-1H-pyrazol-4-yl)-3,4-dihydroquinoxaline-1(2H)-carboxylate] | 100 to 1000 | 50 to 500 | < 100 | –
4 | CC(=O)N1c2ccc(-c3cnn(C4COC4)c3)cc2N(C(=O)Oc2ccccc2)C[C@@H]1C [Example I-88, (S)-phenyl 4-acetyl-3-methyl-7-(1-(oxetan-3-yl)-1H-pyrazol-4-yl)-3,4-dihydroquinoxaline-1(2H)-carboxylate] | 100 to 1000 | < 50 | < 100 | –
5 | CC(=O)N1c2ccc(-c3cnn(C4CC4)c3)cc2N(c2n[nH]c3ccccc23)C[C@@H]1C [Example I-93, (S)-1-(6-(1-cyclopropyl-1H-pyrazol-4-yl)-4-(1H-indazol-3-yl)-2-methyl-3,4-dihydroquinoxalin-1 (2H)-yl)ethan-1-one] | 100 to 1000 | 50 to 500 | < 100 | –
6 | CC(=O)N1c2ccc(-c3ccc(S(C)(=O)=O)cc3)cc2N(c2n[nH]c3ccccc23)C[C@@H]1C [Example I-94, (S)-1-(4-(1H-indazol-3-yl)-2-methyl-6-(4-(methylsulfonyl)phenyl)-3,4-dihydroquinoxalin-1 (2H)-yl)ethan-1-one] | 100 to 1000 | 50 to 500 | < 100 | –
7 | CC(=O)N1c2ccc(-c3cnn(C4CC4)c3)cc2N(c2noc3ccccc23)C[C@@H]1C [Example I-95, (S)-1-(4-(benzo[d]isoxazol-3-yl)-6-(1-cyclopropyl-1H-pyrazol-4-yl)-2-methyl-3,4-dihydroquinoxalin-1(2H)-yl)ethanone] | < 100 | < 50 | – | 100 to 500
8 | CC(=O)N1c2ccc(-c3cnn(C4CS(=O)(=O)C4)c3)cc2N(C(=O)OC2CCC2)C[C@@H]1C [Example I-98, cyclobutyl (3S)-4-acetyl-7-[1-(1,1-dioxo-1λ^6-thietan-3-yl)-1H-pyrazol-4-yl]-3-methyl-1,2,3,4-tetrahydroquinoxaline-1-carboxylate] | 100 to 1000 | 50 to 500 | 100 to 500 | –
9 | CC(=O)N1c2ccc(-c3ccc(C(=O)N4CCNCC4)cc3)cc2N(C(=O)Oc2ccccc2)C[C@@H]1C [Example I-99, phenyl (S)-4-acetyl-3-methyl-7-(4-(piperazine-1-carbonyl)phenyl)-3,4-dihydroquinoxaline-1(2H)-carboxylate] | < 100 | < 50 | – | < 100

Continued, in another order:

Row | IC50 (BRD4 BD1) [nM] | IC50 (BRD4 BD2) [nM] | IC50 (MV4-11 cells; MV4-11, 72 h) [nM] | Structure (SMILES) | IC50 (MV4-11 cells) [nM]
10 | < 100 | < 50 | 100 to 500 | CC(=O)N1c2ccc(-c3cnn(C4COC4)c3)cc2N(C(=O)OC2CC3CC3C2)C[C@@H]1C (stereo partly drawn) [Example I-74, (3S)-bicyclo[3.1.0]hexan-3-yl 4-acetyl-3-methyl-7-(1-(oxetan-3-yl)-1H-pyrazol-4-yl)-3,4-dihydroquinoxaline-1(2H)-carboxylate] | –
11 | < 100 | < 50 | 100 to 500 | CC(=O)N1c2ccc(-c3cnn(C4COC4)c3)cc2N(C(=O)OCC(C)(C)F)C[C@@H]1C [Example I-77, (S)-2-fluoro-2-methylpropyl 4-acetyl-3-methyl-7-(1-(oxetan-3-yl)-1H-pyrazol-4-yl)-3,4-dihydroquinoxaline-1(2H)-carboxylate] | –
12 | 100 to 1000 | 50 to 500 | 100 to 500 | CC(=O)N1c2ccc(-c3cnn(C4CC4)c3)cc2N(C(=O)OCCC(F)(F)F)C[C@@H]1C [Example I-78, (S)-3,3,3-trifluoropropyl 4-acetyl-7-(1-cyclopropyl-1H-pyrazol-4-yl)-3-methyl-3,4-dihydroquinoxaline-1(2H)-carboxylate] | –
13 | 100 to 1000 | 50 to 500 | 100 to 500 | CC(=O)N1c2ccc(-c3cnn(C4CC4)c3)cc2N(C(=O)OCC(F)(F)F)C[C@@H]1C [Example I-79, (S)-2,2,2-trifluoroethyl 4-acetyl-7-(1-cyclopropyl-1H-pyrazol-4-yl)-3-methyl-3,4-dihydroquinoxaline-1(2H)-carboxylate] | –
14 | 100 to 1000 | 50 to 500 | 100 to 500 | CC(=O)N1c2ccc(-c3cnn(C4CC4)c3)cc2N(C(=O)OC(CF)CF)C[C@@H]1C [Example I-80, (S)-1,3-difluoropropan-2-yl 4-acetyl-7-(1-cyclopropyl-1H-pyrazol-4-yl)-3-methyl-3,4-dihydroquinoxaline-1(2H)-carboxylate] | –
15 | 100 to 1000 | 50 to 500 | > 500 | CC(=O)N1c2ccc(-c3cnn(CCO)c3)cc2N(C(=O)OC(CF)CF)C[C@@H]1C [Example I-83, (S)-1,3-difluoropropan-2-yl 4-acetyl-7-(1-(2-hydroxyethyl)-1H-pyrazol-4-yl)-3-methyl-3,4-dihydroquinoxaline-1 (2H)-carboxylate] | –
16 | < 100 | < 50 | 100 to 500 | CC(=O)N1c2ccc(-c3cnn(C4COC4)c3)cc2N(C(=O)Oc2ccc(F)cc2)C[C@@H]1C [Example I-85, 4-fluorophenyl (S)-4-acetyl-3-methyl-7-(1-(oxetan-3-yl)-1H-pyrazol-4-yl)-3,4-dihydroquinoxaline-1(2H)-carboxylate] | –
17 | < 100 | < 50 | < 100 | COc1ccc(OC(=O)N2C[C@H](C)N(C(C)=O)c3ccc(-c4cnn(C5COC5)c4)cc32)cc1 [Example I-87, (S)-4-methoxyphenyl 4-acetyl-3-methyl-7-(1-(oxetan-3-yl)-1H-pyrazol-4-yl)-3,4-dihydroquinoxaline-1(2H)-carboxylate] | –
18 | < 100 | < 50 | 100 to 500 | CC(=O)N1c2ccc(-c3cnn(C4COC4)c3)cc2N(C(=O)Oc2cccnc2)C[C@@H]1C [Example I-89, (S)-pyridin-3-yl 4-acetyl-3-methyl-7-(1-(oxetan-3-yl)-1H-pyrazol-4-yl)-3,4-dihydroquinoxaline-1(2H)-carboxylate] | –
19 | < 100 | < 50 | 100 to 500 | CC(=O)N1c2ccc(-c3cnn(C4COC4)c3)cc2N(C(=O)Oc2ccncc2)C[C@@H]1C [Example I-90, (S)-pyridin-4-yl 4-acetyl-3-methyl-7-(1-(oxetan-3-yl)-1H-pyrazol-4-yl)-3,4-dihydroquinoxaline-1(2H)-carboxylate] | –
20 | < 100 | < 50 | 100 to 500 | CC(=O)N1c2ccc(-c3cnn(C4COC4)c3)cc2N(C(=O)Oc2ccccn2)C[C@@H]1C [Example I-91, (S)-pyridin-2-yl 4-acetyl-3-methyl-7-(1-(oxetan-3-yl)-1H-pyrazol-4-yl)-3,4-dihydroquinoxaline-1(2H)-carboxylate] | –
